From patent US20200331904A1, “3-AMINO-[1,2,4]-TRIAZOLE DERIVATIVES AND THEIR USE FOR CONTROLLING UNDESIRED PLANT GROWTH” (Bayer CropScience Aktiengesellschaft, priority 2017, published 2020)

Experiments:
Assay type in all cases: in vivo
Amaranthus retroflexus = assay: Pre-emergence herbicidal efficacy, AMARE; details: Table B1, application rate 320 g/ha, scored visually after about 3 weeks vs untreated controls
From the text: (§1) C.1 Pre-Emergence Herbicidal Action and Crop Plant Compatibility
(§2) Seeds of monocotyledonous and dicotyledonous weed plants and crop plants are placed in plastic or organic planting pots and covered with soil. The compounds of the invention, formulated in the form of wettable powders (WP) or as emulsion concentrates (EC), are then applied onto the surface of the covering soil as aqueous suspension or emulsion with addition of 0.5% additive at a water application rate of […] (converted). After the treatment, the pots are placed in a greenhouse and kept under good growth conditions for the trial plants. After about 3 weeks, the effect of the preparations is scored visually in comparison with untreated controls as percentages. For example, 100% activity=the plants have died, 0% activity=like control plants.
(§3) ABUTH: Abutilon theophrasti ALOMY: Alopecurus myosuroides AMARE: Amaranthus retroflexus AVEFA: Avena fatua CYPES: Cyperus esculentus ECHCG: Echinochloa crus-galli LOLMU: Lolium multiflorum MATIN: Matricaria inodora PHBPU: Ipomoea purpurea POLCO: Polygonum convolvulus SETVI: Setaria viridis STEME: Stellaria media VERPE: Veronica persica VTOTR: Viola tricolor

Stellaria media = assay: Pre-emergence herbicidal efficacy, STEME
From the text: as §1, §2, §3

Setaria viridis = assay: Pre-emergence herbicidal efficacy, SETVI; details: Table B1, application rate 320 g/ha, scored visually after about 3 weeks vs untreated controls
From the text: as §1, §2, §3

Matricaria inodora = assay: Pre-emergence herbicidal efficacy, MATIN
From the text: as §1, §2, §3

Polygonum convolvulus = assay: Pre-emergence herbicidal efficacy, POLCO; details: Table B1, application rate 320 g/ha, scored visually after about 3 weeks vs untreated controls
From the text: as §1, §2, §3

Viola tricolor = assay: Pre-emergence herbicidal efficacy, VIOTR
From the text: as §1, §2, §3

Lolium rigidum = assay: Pre-emergence herbicidal efficacy, LOLRI; details: Table B1, application rate 320 g/ha, scored visually after about 3 weeks vs untreated controls
From the text: C.1 Pre-Emergence Herbicidal Action and Crop Plant Compatibility Seeds of monocotyledonous and dicotyledonous weed plants and crop plants are placed in plastic or organic planting pots and covered with soil. The compounds of the invention, formulated in the form of wettable powders (WP) or as emulsion concentrates (EC), are then applied onto the surface of the covering soil as aqueous suspension or emulsion with addition of 0.5% additive at a water application rate of […] (converted). After the treatment, the pots are placed in a greenhouse and kept under good growth conditions for the trial plants. After about 3 weeks, the effect of the preparations is scored visually in comparison with untreated controls as percentages. For example, 100% activity=the plants have died, 0% activity=like control plants. […] Here, for example, compound Nos. I-214 and I-196, when applied pre-emergence, have very good activity (80% to 100% herbicidal activity) against harmful plants such as Abutilon theophrasti, Amaranthus retroflexus, Echinochloa crus-galli, Lolium rigidum, Matricaria inodora, Polygonum convolvulus, Setaria viridis, Stellaria media, Veronica persica and Viola tricolor at an application rate of 0.32 kg of active substance or less per hectare. At the same time, some of the compounds according to the invention leave Gramineae crops such as barley, wheat, rye, millet/sorghum, corn, rice or sugar cane virtually undamaged when applied pre-emergence, even at high active compound dosages. In addition, some substances are also harmless to dicotyledonous crops such as soya, cotton, oilseed rape or sugar beet.

Veronica persica = assay: Pre-emergence herbicidal efficacy, VERPE; details: Table B1, application rate 320 g/ha, scored visually after about 3 weeks vs untreated controls
From the text: as §1, §2, §3

Echinochloa crus-galli = assay: Pre-emergence herbicidal efficacy, ECHCG; details: Table B1, application rate 320 g/ha, scored visually after about 3 weeks vs untreated controls
From the text: as §1, §2, §3

Abutilon theophrasti = assay: Pre-emergence herbicidal efficacy, ABUTH; details: Table B1, application rate 320 g/ha, scored visually after about 3 weeks vs untreated controls
From the text: as §1, §2, §3

[1] = Table B1, application rate 320 g/ha, scored visually after about 3 weeks vs untreated controls
[2] = application rate 320 g/ha, scored visually after about 3 weeks

| Structure (SMILES) | Herbicidal efficacy against AMARE (Amaranthus retroflexus) [%] | Herbicidal efficacy against STEME (Stellaria media; [1]) [%] | Herbicidal efficacy against SETVI (Setaria viridis) [%] | Herbicidal efficacy against MATIN (Matricaria inodora; [1]) [%] | Herbicidal efficacy against POLCO (Polygonum convolvulus) [%] | Herbicidal efficacy against VIOTR (Viola tricolor; [1]) [%] | Herbicidal efficacy against LOLRI (Lolium rigidum) [%] | Herbicidal efficacy against VERPE (Veronica persica) [%] | Herbicidal efficacy against ECHCG (Echinochloa crus-galli) [%] | Herbicidal efficacy against ABUTH (Abutilon theophrasti) [%] | Herbicidal efficacy against STEME (Stellaria media; [2]) [%] | Herbicidal efficacy against MATIN (Matricaria inodora; [2]) [%] | Herbicidal efficacy against VIOTR (Viola tricolor; [2]) [%] |
| --- | --- | --- | --- | --- | --- | --- | --- | --- | --- | --- | --- | --- | --- |
| Cc1ccc2c(c1)C(Nc1nc3n(n1)CCN(C(C)C)C3)C(C)C2 (stereo not drawn) [Example I-152] | 100 | 100 | 100 | 100 | 100 | 100 | 100 | 100 | 100 | 100 |  |  |  |
| Cc1ccc2c(c1)C(Nc1nc3n(n1)CCN(C(=O)C1CC1)C3)C(C)C2 (stereo not drawn) [Example I-167] | 100 | 100 | 100 | 100 | 100 | 100 | 100 | 100 | 100 | 100 |  |  |  |
| Cc1ccc2c(c1)C(Nc1nc3n(n1)CCN(C(=O)c1ccc(Cl)cc1)C3)C(C)C2 (stereo not drawn) [Example I-171] | 100 | 100 | 100 | 100 | 100 | 100 | 100 | 100 | 90 | 100 |  |  |  |
| Cc1ccc2c(c1)[C@H](Nc1nc3n(n1)CCN(C(=O)C1CC1)C3)CC2 [Example I-175] | 100 | 100 | 100 | 100 | 100 | 100 | 100 | 100 | 100 | 100 |  |  |  |
| Cc1ccc2c(c1)[C@H](Nc1nc3n(n1)CCN(C(=O)C1CC1)C3)CCC2 [Example I-182] | 100 | 100 | 100 | 100 | 100 | 100 | 100 | 100 | 90 | 100 |  |  |  |
| Cc1ccc2c(c1)[C@H](Nc1nc3n(n1)CCN(S(=O)(=O)C(C)C)C3)[C@@H](C)C2 [Example I-191] | 100 | 100 | 100 | 100 | 100 | 100 | 100 | 100 | 100 | 100 |  |  |  |
| Cc1ccc2c(c1)[C@H](Nc1nc3n(n1)CCN(S(C)(=O)=O)C3)CC2 [Example I-196] | 100 | 100 | 100 | 100 | 100 | 100 | 100 | 100 | 100 | 100 |  |  |  |
| Cc1ccc2c(c1)[C@H](Nc1nc3n(n1)CCN(S(=O)(=O)C(C)C)C3)CC2 [Example I-197] | 100 | 100 | 100 | 100 | 80 | 100 | 80 | 100 | 90 | 100 |  |  |  |
| Fc1ccc2c(c1)[C@H](Nc1nc3n(n1)CCCCS3)CCC2 [Example I-215] | 100 | 100 | 100 | 100 | 100 | 100 | 100 | 100 | 100 | 100 |  |  |  |
| Cc1ccc2c(c1)C(Nc1nc3n(n1)CCCS3(=O)=O)CC2 (stereo not drawn) [Example I-238] | 100 | 100 | 100 | 100 | 100 | 100 | 90 | 100 | 80 | 100 |  |  |  |
| Cc1ccc2c(c1)C(Nc1nc3n(n1)CCCC[S+]3[O-])CCC2 (stereo not drawn) [Example I-246] | 100 | 100 | 100 | 100 | 100 | 100 | 100 | 100 | 100 | 80 |  |  |  |
| Cc1ccc2c(c1)C(Nc1nc3n(n1)CCC(=O)N3CC1CC1)CCC2 (stereo not drawn) [Example I-254] | 100 | 100 | 100 | 100 | 100 | 100 | 100 | 100 | 80 | 100 |  |  |  |
| Cc1ccc2c(c1)C(Nc1nc3n(n1)CCC(=O)N3CC1CCCCC1)CC2 (stereo not drawn) [Example I-256] | 100 | 100 | 100 | 100 | 100 | 100 | 80 | 100 | 90 | 100 |  |  |  |
| CC(=O)N1CCCn2nc(NC3CCCc4ccc(C)cc43)nc21 (stereo not drawn) [Example I-321] | 100 | 100 |  | 100 | 90 | 100 | 100 | 100 |  | 80 | 100 | 100 | 100 |
| CC1CCc2ccccc2C1Nc1nc2n(n1)CCCCS2 (stereo not drawn) [Example I-356] | 100 | 100 | 100 | 100 | 100 | 100 | 100 | 100 | 100 |  |  |  |  |
| Cc1ccc2c(c1)[C@H](Nc1nc3n(n1)CCCCS3(=O)=O)CCO2 [Example I-381] | 100 | 100 | 100 | 100 | 100 | 100 | 100 | 100 |  | 100 |  |  |  |
